{
  "source": "patent US7297702B2",
  "about": "“Contraception method using competitive progesterone antagonists and novel compounds useful therein” (Schering Aktiengesellschaft, priority 2004, dated 2007)",
  "key": {"rat [1]": {"test_system": "rat", "experiment": "Dissociation factor: ovulation inhibition test versus implantation inhibition in the rat", "type": "in vivo", "conditions": "for peripherally selective effectiveness (endometrium versus hypophysial-ovarian axis): endometrial effect very greatly pronounced, at the same dose at most only a slight central effect; for Dissociation factor: ratio of ovulation-inhibiting dose and implantation inhibiting dose, rat, peroral administration", "from_the_text": "Such competitive progesterone antagonists can also be designated as dissociated, since at a specific threshold dose, although changes of the endometrium are observed, ovulation (central effect) is not inhibited. The ratio of ovulation-inhibiting dose and implantation inhibiting dose (dissociation factor) (as determined in the rat after peroral administration) can be used as a measurement of the dissociation. This ratio varies from species to species but is at least about 30 or higher in a dissociated or competitive progesterone antagonist.\nSuch competitive progesterone antagonists can also be designated as dissociated, since at a specific threshold dose, changes of the endometrium are observed, but the ovulation (central effect) is not inhibited. The ratio of ovulation-inhibiting and implantation inhibiting (dissociation factor) doses can be used as a measurement for the dissociation. It varies depending on the species and is about. 30 or more for a dissociated competitive progesterone antagonist (in the rat after peroral administration) to be used according to the invention.\nTo determine the ovulation-inhibiting doses of competitive progesterone antagonists, the ovulation-inhibiting test described below is performed on the rat; the respective abortively effective doses follow from the known (e.g., U.S. Pat. No. 5,095,129) rat abortive test.\nOvulation Inhibition Test on the Rat\nFor detection of ovulation-inhibiting substances, the rat is well-suited insofar as it spontaneously ovulates and the cycle can easily be observed by means of vaginal smears. This makes it possible to control the course of the test also during the treatment phase.\nFemale rats weighing 190-210 g, pro dosi 6 animals.\nThe animals are kept in Macrolon cages in rooms with controlled exposure to light (10 hours of darkness: 14 hours of brightness), fed a standard diet (pelletized rat food) and tap water at will.\nThe test substances are dissolved in benzyl benzoate/castor oil (1+9 v/v) and the daily dose is administered in a volume of 0.2 ml s.c.\nIn the oral application, the test substance is suspended in a carrier liquid (85 mg of Myrj® in 100 ml of 0.9% w/v NaCl solution) and the daily dose is administered in a volume of 0.5 ml.\nTwo cycles are observed before the beginning of the test by means of vaginal smears. Only animals with a regular 4-day cycle are used in the test. The assignment to the treatment groups takes place at random. Beginning in the metestrus, the test substance is administered over 4 days (day 1-4) and the cycle is further controlled.\nOn day 4 (after the administration), animals, which have an estrus or metestrus at the time of the vaginal smear, are ovariectomized on one side under ether anesthesia. Crush preparations are prepared from the tubes and examined by microscope for the presence of egg cells. On day 5, all animals (intact and unilaterally ovariectomized) are killed with CO2 gas and the tubes are prepared and examined in the same way.\nIn the individual dosage groups, the percentage of animals in which the ovulation was inhibited is determined."}, "rat [2]": {"test_system": "rat", "experiment": "Implantation inhibition (antinidatory effectiveness) in the rat", "type": "in vivo"}, "[3]": {"experiment": "Thymolysis test for antiglucocorticoidal effect", "type": "in vivo", "conditions": "thymolysis test (EP-A-0 283 428)", "from_the_text": "This is seen from the thymolysis test for antiglucocorticoidal effect (EP-A-0 283 428)."}, "endometrium": {"test_system": "endometrium", "experiment": "Weekly s.c. Onapriston in bonnet monkeys: endometrial histology (biopsy day 20 of second cycle)", "type": "in vivo, Macaca radiata", "conditions": "both treatment groups (5 mg and 10 mg weekly s.c.), after 7 administrations", "from_the_text": "(§1) The above-described use of competitive progesterone antagonists is evidenced by tests performed with Onapriston [11β-(4-dimethylaminophenyl)-17α-hydroxy-17β-(3-hydroxy-propyl)-13α-methyl-4,9-gonadien-3-one; EP-A-0129499], a typically competitive progesterone antagonist, on adult, female bonnet monkeys (Macaca radiata)."}, "women": {"test_system": "women", "experiment": "Human Study 3: once-a-week oral onapristone", "type": "in vivo", "conditions": "once-a-week oral 0.25-50 mg over two cycles", "protocol": "Duration of the study: Evaluation of three cycles: pre-treatment, treatment and post-treatment cycles. • Regimen: 18 daily oral administration of 20 mg (group 1), 10 mg (group 2) and 5 mg (group 3) onapristone starting on day 1 of the cycle. c) Evaluation: • RIA, LH, FSH, E2 and progesterone and cortisol during the pre-treatment, treatment and post-treatment cycles. • Evaluation of endometrial biopsies and collection of the uterine fluid (by prevical) on day 16 and day 23 of the treatment cycle (see appendix for details) • Occurrence of menstrual bleeding. Human Study 3: Effects of once-a-week administration of onapristone on ovulation, endometrial morphology and biochemistry a) Objective:\nGroups of volunteers: […] (five treatment groups and a control group) of 8-10 women with ligated oviducts.\nDuration of the study: Evaluation of four cycles: pre-treatment, two treatment and post-treatment cycles.\nOnce-a-week oral administration of 50 mg (group 1) 20 mg (group 2), 10 mg (group 3) 2 mg ([…]) and 0.25 mg (group 5), onapristone starting on day 1 of the cycle over the two cycles.\nRIA, LH, FSH, E2 and progesterone during the pre-treatment, treatment and post-treatment cycles.\nEvaluation of endometrial biopsies and collection of the uterine fluid on day 16 and day 23 of both treatment cycles (see appendix for details).\nOccurrence of menstrual bleeding and cycle abnormalities: […]"}, "[4]": {"test_system": "adult, female bonnet monkeys (Macaca radiata)", "experiment": "Weekly s.c. Onapriston in bonnet monkeys: estradiol and progesterone levels (RIA), folliculogenesis and ovulation", "type": "in vivo", "conditions": "5 mg and 10 mg per animal s.c. weekly, 2 cycles", "from_the_text": "as §1"}, "humans": {"test_system": "humans", "conditions": "50 mg, given during the late luteal phase; cited from earlier work"}, "[5]": {"test_system": "adult, female bonnet monkeys (Macaca radiata)", "experiment": "Weekly s.c. Onapriston in bonnet monkeys: length of menstrual cycle and menstrual period", "type": "in vivo", "conditions": "for Length of MC, After-treatment Cycle / Length of MC, Treatment Cycle 1 / Length of MC, Treatment Cycle 2 / Length of MD, After-treatment Cycle / Length of MP, Treatment Cycle 1 / Length of MP, Treatment Cycle 2 / Length of MC, Pretreatment Cycle / Length of MP, Pretreatment Cycle: individual animals; for Length of MC, Pretreatment Cycle / Length of MP, Pretreatment Cycle: pretreatment cycle (baseline)", "from_the_text": "as §1"}},
  "note": "Several values for one entry are separate records, joined by “and”; a condition that tells them apart may be missing. Identical values can stand only once.",
  "data": [
    {"compound": "11β,19-[4-(3-pyridinyl)-o-phenylene]-17β-hydroxy-17α-(3-hydroxyprop-1(Z)-enyl)-4-androsten-3-one [II]", "values": [
      {"measurement": "peripherally selective effectiveness (endometrium versus hypophysial-ovarian axis)", "setting": "rat [1]", "value": "surprisingly pronounced peripherally selective effectiveness"},
      {"measurement": "Dissociation factor", "setting": "rat [1]", "value": ">30"},
      {"measurement": "daily dose still completely implantation-inhibiting effective", "setting": "rat [2]", "value": 0.3, "unit": "mg"},
      {"measurement": "antiglucocorticoidal effect", "setting": "[3]", "value": "not simultaneously antiglucocorticoidally effective"}
    ]},
    {"compound": "11β,19-[4-(4-cyanophenyl)-o-phenylene]-17β-hydroxy-17α-(3-hydroxyprop-1(Z)-enyl)-4-androsten-3-one [I]", "values": [
      {"measurement": "peripherally selective effectiveness (endometrium versus hypophysial-ovarian axis)", "setting": "rat [1]", "value": "surprisingly pronounced peripherally selective effectiveness"},
      {"measurement": "Dissociation factor", "setting": "rat [1]", "value": ">100"},
      {"measurement": "daily dose still completely implantation-inhibiting effective", "setting": "rat [2]", "value": 0.1, "unit": "mg"},
      {"measurement": "antiglucocorticoidal effect", "setting": "[3]", "value": "not simultaneously antiglucocorticoidally effective"}
    ]},
    {"compound": "CN(C)c1ccc([C@H]2C[C@]3(C)[C@@H](CC[C@]3(O)CCCO)[C@@H]3CCC4=CC(=O)CCC4=C32)cc1", "note": "[Onapriston, 11β-(4-dimethylaminophenyl)-17α-hydroxy-17β-(3-hydroxy-propyl)-13α-methyl-4,9-gonadien-3-one]", "values": [
      {"measurement": "endometrial histology in contrast to control animals", "setting": "endometrium", "value": "atrophied"},
      {"measurement": "contraception reliability", "setting": "women", "value": "high contraception reliability"},
      {"measurement": "control of the cycle compared to the control group", "setting": "women", "value": "better control of the cycle"},
      {"measurement": "tolerance", "setting": "women", "value": "high tolerance"},
      {"measurement": "folliculogenesis and ovulation (estradiol and progesterone levels)", "setting": "[4]", "value": "occurred normally in all animals"},
      {"measurement": "effect on menstruation", "setting": "humans", "value": "induce premature menstruation"},
      {"measurement": "length of the cycle and the menstrual period relative to the control group", "setting": "[5]; 5 mg and 10 mg per animal s.c. weekly, 2 cycles", "value": "not changed"},
      {"measurement": "Length of MC, After-treatment Cycle", "setting": "[5]; Group 2, 5 mg/week s.c.", "value": "27 day (2×) and 31 day"},
      {"measurement": "Length of MC, Treatment Cycle 1", "setting": "[5]; Group 2, 5 mg/week s.c.", "value": "24 days and 27 days and 26 days"},
      {"measurement": "Length of MC, Treatment Cycle 2", "setting": "[5]; Group 2, 5 mg/week s.c.", "value": "39 days and 29 days and 26 days"},
      {"measurement": "Length of MD, After-treatment Cycle", "setting": "[5]; Group 2, 5 mg/week s.c.", "value": "4 day (2×) and 3 day"},
      {"measurement": "Length of MP, Treatment Cycle 1", "setting": "[5]; Group 2, 5 mg/week s.c.", "value": "2 day and 1 day (2×)"},
      {"measurement": "Length of MP, Treatment Cycle 2", "setting": "[5]; Group 2, 5 mg/week s.c.", "value": "5 day and 1 day (2×)"},
      {"measurement": "Length of MC, Pretreatment Cycle", "setting": "[5]; Group 2, 5 mg/week s.c.", "value": "26 days and 28 days and 24 days"},
      {"measurement": "Length of MP, Pretreatment Cycle", "setting": "[5]; Group 2, 5 mg/week s.c.", "value": "1 day (2×) and 3 day"},
      {"measurement": "Length of MC, After-treatment Cycle", "setting": "[5]; Group 3, 10 mg/week s.c.", "value": "26 days and 48 days and 27 days"},
      {"measurement": "Length of MC, Treatment Cycle 1", "setting": "[5]; Group 3, 10 mg/week s.c.", "value": "25 days and 26 days and 28 days"},
      {"measurement": "Length of MD, After-treatment Cycle", "setting": "[5]; Group 3, 10 mg/week s.c.", "value": "4 days and 1 days and 3 days"},
      {"measurement": "Length of MP, Treatment Cycle 1", "setting": "[5]; Group 3, 10 mg/week s.c.", "value": "3 day and 1 day (2×)"},
      {"measurement": "Length of MP, Treatment Cycle 2", "setting": "[5]; Group 3, 10 mg/week s.c.", "value": "1 day (2×) and 2 day"},
      {"measurement": "Length of MC, Treatment Cycle 2", "setting": "[5]; Group 3, 10 mg/week s.c., * = 2 ovulation cycles, bleeding slight after the first cycle", "value": "53* day and 25 day and 28 day"},
      {"measurement": "Length of MC, Pretreatment Cycle", "setting": "[5]; Group 3, 10 mg/week s.c.", "value": "26 days and 24 days and 30 days"},
      {"measurement": "Length of MP, Pretreatment Cycle", "setting": "[5]; Group 3, 10 mg/week s.c.", "value": "4 days and 2 days and 3 days"}
    ]},
    {"compound": "CC#C[C@]1(O)CC[C@H]2[C@@H]3CCC4=CC(=O)CCC4=C3[C@@H](c3ccc(N(C)C)cc3)C[C@@]21C", "note": "[RU 486, 11β-[4-N,N-(dimethylamino)phenyl]-17β-hydroxy-17α-propinyl-estra-4,9(10)-dien-3-one]", "values": [
      {"measurement": "Dissociation factor", "setting": "rat [1]", "value": "<10"}
    ]}
  ]
}
